US20260193264A1, “BENZOYPARAZINE PYRAZINES AND THEIR USES” (FOGHORN THERAPEUTICS INC., priority 2022, published 2026)

What was measured:
[1] = biological target: T1, HiBit-BRG1 fusion protein in stable HeLa cell line expressing HiBit-BRG1 and LgBit (Homo sapiens, UniProt P51532); assay: HiBiT-BRG1 cell-based degradation assay (Nano-Glo HiBiT, 24 h); conditions: HeLa HiBit-BRG1/LgBit cells; for Dmax: top dose 30 μM, read-out: BRG1 HiBit Degradation Maximum (%); for DC50: read-out: BRMG1 HiBit Degradation IC50
T1 construct: expressed in transfected cells
T1 sequence (P51532 whole entry, the tested form may be a part): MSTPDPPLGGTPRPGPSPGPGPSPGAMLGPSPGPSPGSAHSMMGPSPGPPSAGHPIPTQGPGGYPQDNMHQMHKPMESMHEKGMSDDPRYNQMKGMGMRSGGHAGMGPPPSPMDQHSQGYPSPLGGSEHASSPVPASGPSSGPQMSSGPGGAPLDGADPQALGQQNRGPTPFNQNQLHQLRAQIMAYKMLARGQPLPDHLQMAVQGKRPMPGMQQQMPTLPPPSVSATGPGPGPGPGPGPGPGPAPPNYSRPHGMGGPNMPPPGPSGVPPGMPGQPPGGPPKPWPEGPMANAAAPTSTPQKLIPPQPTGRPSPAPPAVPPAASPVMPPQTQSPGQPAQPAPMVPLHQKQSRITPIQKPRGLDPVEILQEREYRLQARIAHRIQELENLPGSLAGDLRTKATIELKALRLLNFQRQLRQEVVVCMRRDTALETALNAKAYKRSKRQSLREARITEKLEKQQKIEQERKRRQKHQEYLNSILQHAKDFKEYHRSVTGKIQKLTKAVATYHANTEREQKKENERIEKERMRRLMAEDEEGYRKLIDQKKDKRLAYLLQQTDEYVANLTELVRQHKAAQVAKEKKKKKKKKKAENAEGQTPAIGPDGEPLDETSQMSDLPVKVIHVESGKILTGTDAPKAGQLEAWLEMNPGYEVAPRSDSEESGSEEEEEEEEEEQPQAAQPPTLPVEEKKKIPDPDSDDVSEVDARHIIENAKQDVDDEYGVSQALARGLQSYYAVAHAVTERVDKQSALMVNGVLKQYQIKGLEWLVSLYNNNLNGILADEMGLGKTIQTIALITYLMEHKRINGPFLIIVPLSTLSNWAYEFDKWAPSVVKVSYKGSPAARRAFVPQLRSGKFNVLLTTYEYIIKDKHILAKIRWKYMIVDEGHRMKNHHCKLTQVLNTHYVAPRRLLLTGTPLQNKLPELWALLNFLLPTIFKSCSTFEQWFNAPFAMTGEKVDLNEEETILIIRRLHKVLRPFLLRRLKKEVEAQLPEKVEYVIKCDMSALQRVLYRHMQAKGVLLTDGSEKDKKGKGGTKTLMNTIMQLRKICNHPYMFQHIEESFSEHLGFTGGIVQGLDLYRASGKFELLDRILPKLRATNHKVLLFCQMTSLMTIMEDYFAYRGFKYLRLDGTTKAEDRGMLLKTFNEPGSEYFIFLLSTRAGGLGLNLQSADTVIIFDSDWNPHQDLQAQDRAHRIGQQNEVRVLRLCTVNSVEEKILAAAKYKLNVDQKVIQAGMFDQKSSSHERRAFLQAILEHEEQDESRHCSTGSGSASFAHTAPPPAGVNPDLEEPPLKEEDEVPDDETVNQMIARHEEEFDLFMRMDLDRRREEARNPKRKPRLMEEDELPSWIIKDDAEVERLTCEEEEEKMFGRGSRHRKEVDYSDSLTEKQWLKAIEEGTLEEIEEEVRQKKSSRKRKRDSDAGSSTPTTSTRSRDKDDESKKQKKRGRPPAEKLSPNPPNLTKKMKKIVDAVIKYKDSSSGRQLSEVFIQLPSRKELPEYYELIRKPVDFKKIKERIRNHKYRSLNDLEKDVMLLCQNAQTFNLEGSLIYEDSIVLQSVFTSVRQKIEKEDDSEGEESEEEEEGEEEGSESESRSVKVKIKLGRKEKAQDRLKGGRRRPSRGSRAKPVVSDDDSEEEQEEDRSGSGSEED
Procedure, shortened: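 Degradation calculated from NanoBiT luminescence relative to DMSO-treated cells (high) and cells given 2 μM known BRM/BRG1 degrader (low). HeLa cells stably expressing HiBiT-BRG1 plus LgBiT were exposed to compound for 24 h before lytic HiBiT detection.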

[2] = biological target: T2, HiBiT-BRM fusion protein in stable HeLa cell line (Homo sapiens, UniProt P51531); assay: HiBiT-BRM cell-based degradation assay (Nano-Glo HiBiT Lytic Detection, 24 h); parameters: DC50: scale not given here; conditions: HeLa HiBiT-BRM cells; for DC50: read-out: BRM HiBit Degradation IC50; for BRM HiBit Degradation Maximum (%): top dose 30 μM
T2 construct: expressed in transfected cells
T2 sequence (P51531 whole entry, the tested form may be a part): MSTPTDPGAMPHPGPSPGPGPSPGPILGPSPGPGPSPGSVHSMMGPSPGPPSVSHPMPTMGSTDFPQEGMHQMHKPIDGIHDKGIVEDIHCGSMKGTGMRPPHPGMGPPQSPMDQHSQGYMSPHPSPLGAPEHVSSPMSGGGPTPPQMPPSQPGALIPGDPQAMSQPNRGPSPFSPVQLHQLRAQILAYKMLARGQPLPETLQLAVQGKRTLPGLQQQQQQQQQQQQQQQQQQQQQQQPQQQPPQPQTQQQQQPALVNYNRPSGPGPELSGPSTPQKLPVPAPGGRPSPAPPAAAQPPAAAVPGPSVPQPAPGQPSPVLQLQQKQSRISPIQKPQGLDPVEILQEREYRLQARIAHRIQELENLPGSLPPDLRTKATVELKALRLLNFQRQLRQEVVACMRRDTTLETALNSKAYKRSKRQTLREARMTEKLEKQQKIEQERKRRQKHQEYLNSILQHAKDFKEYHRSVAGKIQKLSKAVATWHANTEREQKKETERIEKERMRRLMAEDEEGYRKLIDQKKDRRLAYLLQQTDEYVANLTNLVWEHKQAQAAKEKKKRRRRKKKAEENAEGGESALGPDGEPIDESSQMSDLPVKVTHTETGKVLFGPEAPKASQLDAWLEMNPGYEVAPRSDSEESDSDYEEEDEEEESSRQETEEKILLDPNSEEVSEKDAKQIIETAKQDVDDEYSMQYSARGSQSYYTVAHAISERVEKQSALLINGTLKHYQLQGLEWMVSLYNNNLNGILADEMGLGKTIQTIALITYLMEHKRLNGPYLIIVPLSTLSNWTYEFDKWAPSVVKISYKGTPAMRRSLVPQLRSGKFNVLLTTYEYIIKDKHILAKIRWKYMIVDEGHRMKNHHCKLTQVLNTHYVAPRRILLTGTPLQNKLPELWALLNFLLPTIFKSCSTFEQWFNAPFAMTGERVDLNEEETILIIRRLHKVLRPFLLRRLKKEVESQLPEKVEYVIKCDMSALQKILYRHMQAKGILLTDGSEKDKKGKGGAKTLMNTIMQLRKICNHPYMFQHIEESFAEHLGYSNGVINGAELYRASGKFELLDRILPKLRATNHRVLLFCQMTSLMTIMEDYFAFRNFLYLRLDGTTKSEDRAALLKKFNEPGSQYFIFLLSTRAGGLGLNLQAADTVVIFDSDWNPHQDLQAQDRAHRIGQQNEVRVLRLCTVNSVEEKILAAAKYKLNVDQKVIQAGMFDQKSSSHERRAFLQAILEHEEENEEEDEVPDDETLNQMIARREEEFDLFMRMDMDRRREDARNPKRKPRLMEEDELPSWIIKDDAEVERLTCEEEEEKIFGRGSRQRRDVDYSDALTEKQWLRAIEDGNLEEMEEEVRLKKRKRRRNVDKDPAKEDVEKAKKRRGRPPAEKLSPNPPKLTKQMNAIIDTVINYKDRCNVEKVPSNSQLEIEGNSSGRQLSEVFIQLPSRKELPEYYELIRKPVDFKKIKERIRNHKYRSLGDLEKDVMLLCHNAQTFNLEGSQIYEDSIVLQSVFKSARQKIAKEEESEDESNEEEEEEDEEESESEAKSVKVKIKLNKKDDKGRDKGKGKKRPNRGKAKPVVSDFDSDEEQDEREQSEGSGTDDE
Procedure, shortened: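 Percent degradation was scaled between DMSO-treated cells and cells given 2 μM of a known BRM/BRG1 degrader. Readout was NanoBiT luminescence after lytic detection. HeLa cells stably expressing HiBiT-BRM were dosed for 24 h, 10 points, 3-fold steps from 30 μM final, in duplicate.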

Row | Dmax [1] | DC50 [2] | DC50 [1] | Compound | BRM HiBit Degradation Maximum (%) [2]
1 | > 75% | < 10 nM | > 10 nM | Cc1ncsc1-c1ccc([C@H](C)NC(=O)[C@@H]2C[C@@H](O)CN2C(=O)C(C(C)C)n2cc(N3CCC(C4CN(c5ccc6nnc(-c7ccccc7O)cc6c5)C4)C3)nn2)cc1 (stereo partly drawn) [Compound 269, (2S,4R)-4-hydroxy-1-(2-(4-(3-(1-(3-(2-hydroxyphenyl)cinnolin-6-yl)azetidin-3-yl)pyrrolidin-1-yl)-1H-1,2,3-triazol-1-yl)-3-methylbutanoyl)-N-((S)-1-(4-(4-methylthiazol-5-yl)phenyl)ethyl)pyrrolidine-2-carboxamide] | A (“A” indicates maximum degradation ≥75%)
2 | > 75% | < 10 nM | > 10 nM | Cc1ncsc1-c1ccc([C@H](C)NC(=O)[C@@H]2C[C@@H](O)CN2C(=O)C(C(C)C)n2cc(N3CCCC(CN4CCN(c5ccc6nnc(-c7ccccc7O)cc6c5)CC4)C3)nn2)cc1 (stereo partly drawn) [Compound 270, (2S,4R)-4-hydroxy-1-(2-(4-(3-((4-(3-(2-hydroxyphenyl)cinnolin-6-yl)piperazin-1-yl)methyl)piperidin-1-yl)-1H-1,2,3-triazol-1-yl)-3-methylbutanoyl)-N-((S)-1-(4-(4-methylthiazol-5-yl)phenyl)ethyl)pyrrolidine-2-carboxamide] | A (“A” indicates maximum degradation ≥75%)
3 | < 50% | > 10 nM | – | Cc1ncsc1-c1ccc([C@H](C)NC(=O)[C@@H]2C[C@@H](O)CN2C(=O)[C@H](C(C)C)n2cnc(N3CC4(CN(c5ccc6cc(-c7ccccc7O)nnc6c5)C4)C3)c2)cc1 [Compound 271, (2S,4R)-4-hydroxy-1-((S)-2-(4-(6-(3-(2-hydroxyphenyl)cinnolin-7-yl)-2,6-diazaspiro[3.3]heptan-2-yl)-1H-imidazol-1-yl)-3-methylbutanoyl)-N-((S)-1-(4-(4-methylthiazol-5-yl)phenyl)ethyl)pyrrolidine-2-carboxamide] | A (“A” indicates maximum degradation ≥75%)
4 | < 50% | > 100 nM | – | Cc1ncsc1-c1ccc([C@H](C)NC(=O)[C@@H]2C[C@@H](O)CN2C(=O)[C@H](C(C)C)n2cnc(N3CC4(CN(c5ccc6nnc(-c7ccccc7O)cc6c5)C4)C3)c2)cc1 [Compound 272, (2S,4R)-4-hydroxy-1-((S)-2-(4-(6-(3-(2-hydroxyphenyl)cinnolin-6-yl)-2,6-diazaspiro[3.3]heptan-2-yl)-1H-imidazol-1-yl)-3-methylbutanoyl)-N-((S)-1-(4-(4-methylthiazol-5-yl)phenyl)ethyl)pyrrolidine-2-carboxamide] | A (“A” indicates maximum degradation ≥75%)
5 | < 50% | < 10 nM | – | C#Cc1ccc([C@H](C)NC(=O)[C@@H]2C[C@@H](O)CN2C(=O)[C@@H](c2cc(N3CC4(CN(c5ccc6cc(-c7ccccc7O)nnc6c5)C4)C3)no2)C(C)C)c(OC)c1 [Compound 273, (2S,4R)-N-((S)-1-(4-ethynyl-2-methoxyphenyl)ethyl)-4-hydroxy-1-((R)-2-(3-(6-(3-(2-hydroxyphenyl)cinnolin-7-yl)-2,6-diazaspiro[3.3]heptan-2-yl)isoxazol-5-yl)-3-methylbutanoyl)pyrrolidine-2-carboxamide] | A (“A” indicates maximum degradation ≥75%)
6 | < 50% | < 10 nM | – | C#Cc1ccc([C@H](C)NC(=O)[C@@H]2C[C@@H](O)CN2C(=O)[C@@H](c2cc(N3CC4(CN(c5ccc6cc(-c7ccccc7O)nnc6c5)C4)C3)no2)C(C)C)cc1 [Compound 274, (2S,4R)-N-((S)-1-(4-ethynylphenyl)ethyl)-4-hydroxy-1-((R)-2-(3-(6-(3-(2-hydroxyphenyl)cinnolin-7-yl)-2,6-diazaspiro[3.3]heptan-2-yl)isoxazol-5-yl)-3-methylbutanoyl)pyrrolidine-2-carboxamide] | A (“A” indicates maximum degradation ≥75%)
7 | > 75% | < 10 nM | > 10 nM | Cc1ncsc1-c1ccc([C@H](C)NC(=O)[C@@H]2C[C@@H](O)CN2C(=O)C(C(C)C)n2cc(N3CCCC4(CCN(c5ccc6nnc(-c7ccccc7O)cc6c5)CC4)C3)nn2)cc1 (stereo partly drawn) [Compound 275] | A (“A” indicates maximum degradation ≥75%)
8 | > 75% | – | > 10 nM | Cc1ncsc1-c1ccc([C@H](C)NC(=O)[C@@H]2C[C@@H](O)CN2C(=O)C(C(C)C)n2cc(N3CCC34CN(c3ccc5nnc(-c6ccccc6O)cc5c3)C4)nn2)cc1 (stereo partly drawn) [Compound 276] | C (“C” indicates maximum degradation <50%)
9 | < 50% | < 10 nM | – | Cc1ncsc1-c1ccc([C@H](C)NC(=O)[C@@H]2C[C@@H](O)CN2C(=O)C(C(C)C)n2cc(N3CCC4(CCN4c4ccc5nnc(-c6ccccc6O)cc5c4)C3)nn2)cc1 (stereo partly drawn) [Compound 277] | A (“A” indicates maximum degradation ≥75%)
10 | > 50% | < 10 nM | > 10 nM | Cc1ncsc1-c1ccc([C@H](C)NC(=O)[C@@H]2C[C@@H](O)CN2C(=O)C(C(C)C)n2cc(N3CCC4(CC3)CCN4c3ccc4nnc(-c5ccccc5O)cc4c3)nn2)cc1 (stereo partly drawn) [Compound 278] | A (“A” indicates maximum degradation ≥75%)
11 | > 75% | < 10 nM | > 10 nM | Cc1ncsc1-c1ccc([C@H](C)NC(=O)[C@@H]2C[C@@H](O)CN2C(=O)C(C(C)C)n2cc(N3CCC4(CCN(c5ccc6nnc(-c7ccccc7O)cc6c5)CC4)C3)nn2)cc1 (stereo partly drawn) [Compound 279] | A (“A” indicates maximum degradation ≥75%)
12 | > 75% | < 10 nM | < 10 nM | Cc1ncsc1-c1ccc([C@H](C)NC(=O)[C@@H]2C[C@@H](O)CN2C(=O)C(C(C)C)n2cc(N3CCN(CC4CCCN(c5ccc6nnc(-c7ccccc7O)cc6c5)C4)CC3)nn2)cc1 (stereo partly drawn) [Compound 280] | A (“A” indicates maximum degradation ≥75%)
13 | > 75% | < 10 nM | < 10 nM | Cc1ncsc1-c1ccc([C@H](C)NC(=O)[C@@H]2C[C@@H](O)CN2C(=O)C(C(C)C)n2cc(N3CCN(CC4CCN(c5ccc6nnc(-c7ccccc7O)cc6c5)CC4)CC3)nn2)cc1 (stereo partly drawn) [Compound 281] | A (“A” indicates maximum degradation ≥75%)
14 | > 75% | < 10 nM | < 10 nM | Cc1ncsc1-c1ccc([C@H](C)NC(=O)[C@@H]2C[C@@H](O)CN2C(=O)C(C(C)C)n2cc(N3CCN(CN4CCN(c5ccc6nnc(-c7ccccc7O)cc6c5)CC4)CC3)nn2)cc1 (stereo partly drawn) [Compound 282] | A (“A” indicates maximum degradation ≥75%)
15 | < 50% | < 10 nM | – | CC(C)[C@@H](C(=O)N1C[C@H](O)C[C@H]1C(=O)N[C@@H](C)c1ccc(F)cc1)c1cc(N2CC3(CC(c4cc5nnc(-c6ccccc6O)cc5cc4C(F)F)C3)C2)no1 [Compound 283] | A (“A” indicates maximum degradation ≥75%)
16 | < 50% | < 10 nM | – | C#Cc1ccc([C@H](C)NC(=O)[C@@H]2C[C@@H](O)CN2C(=O)[C@@H](c2cc(N3CC4(CN(c5ccc6cc(-c7ccccc7O)nnc6c5)C4)C3)no2)C(C)C)c(Cl)c1 [Compound 284] | A (“A” indicates maximum degradation ≥75%)

Row | Compound | Dmax [1] | DC50 [2] | DC50 [1] | BRM HiBit Degradation Maximum (%) [2]
17 | Cc1ncsc1-c1ccc([C@H](C)NC(=O)[C@@H]2C[C@@H](O)CN2C(=O)C(C(C)C)n2cc(N3C4CCC3CN(c3ccc5cc(-c6ccccc6O)nnc5c3)C4)nn2)cc1 (stereo partly drawn) [Compound 268, (2S,4R)-4-hydroxy-1-(2-(4-(3-(3-(2-hydroxyphenyl)cinnolin-7-yl)-3,8-diazabicyclo[3.2.1]octan-8-yl)-1H-1,2,3-triazol-1-yl)-3-methylbutanoyl)-N-((S)-1-(4-(4-methylthiazol-5-yl)phenyl)ethyl)pyrrolidine-2-carboxamide] | < 50% | > 100 nM | – | A (“A” indicates maximum degradation ≥75%)
18 | Cc1ncsc1-c1ccc([C@H](C)NC(=O)[C@@H]2C[C@@H](O)CN2C(=O)C(C(C)C)n2cc(N3C4CCC3CN(c3ccc5nnc(-c6ccccc6O)cc5c3)C4)nn2)cc1 (stereo partly drawn) [Compound 285] | > 75% | < 10 nM | > 10 nM | A (“A” indicates maximum degradation ≥75%)
